Laboratory results from ChEMBL document CHEMBL1149747, “Diterpene metabolites from two chemotypes of the marine sponge Myrmekioderma styx” (J Nat Prod, 1992).
≈ marks a conversion by molar mass, not a printed value.

Experiments:
[1] = system: A549; assay: Cytotoxicity against human A549 cells; format: functional, cell-based
[2] = system: P388; assay: Cytotoxicity against mouse P388 cells; format: functional, cell-based

Structure (SMILES) | IC50 [1] | IC50 [2]
CC(=O)O[C@@H]1C[C@]2(C)C[C@@H]3O[C@]3(C)CCC2[C@@H]2C(C(C)C)=CC[C@]12C (stereo partly specified) | 7 µg/mL (≈ 20.2 µM) | 5.6 µg/mL (≈ 16.2 µM)
CC1=CC[C@@]2(C)CC[C@@]3(C)[C@H](O)C=C(C(C)C)[C@H]3C2CC1 (stereo partly specified) | 4 µg/mL (≈ 13.9 µM) | 11.2 µg/mL (≈ 38.8 µM)
C=CC(C)(O)/C=C/C=C(\C)CC/C=C(\C)CC(=O)C=C(C)C (stereo unspecified) [STYXENOL A] | 6.1 µg/mL (≈ 20.2 µM) | 5 µg/mL (≈ 16.5 µM)
